# From ChEMBL document CHEMBL3045368, “Design, synthesis, and biological activities of novel 2-cyanoacrylates containing oxazole, oxadiazole, or quinoline moieties” (2009)
# System: Brassica napus
# Assay: Herbicidal activity against Brassica napus (oilseed rape) assessed as inhibition of herb growth at 1.5 kg/ha during preemergence treatment protocol
# Assay type: functional
# Conditions: pre-emergence, read-out: GI
row,Compound,inhibition of growth at 1500 g/ha [%]
1,CCOCCOC(=O)/C(C#N)=C(\NCc1ccc2ncccc2c1)SC,10
2,CCOCCOC(=O)/C(C#N)=C(\NCc1coc(-c2cccc(Cl)c2)n1)C(C)C,15
3,CCOCCOC(=O)/C(C#N)=C(\NCc1nc(-c2ccc(C(F)(F)F)cc2)no1)C(C)C,48.4
4,CCOCCOC(=O)/C(C#N)=C(\NCc1nc(-c2ccc(F)cc2)no1)C(C)C,88
5,CCOCCOC(=O)/C(C#N)=C(\NCc1ncc(C)o1)SC,0
6,CCOCCOC(=O)/C(C#N)=C(/CC)NCc1nc(-c2ccc(F)cc2)no1,15
7,CCOCCOC(=O)/C(C#N)=C(\NCc1ccc2ncccc2c1)C(C)C,0
8,CCOCCOC(=O)/C(C#N)=C(\NCc1cnc2ccccc2c1)SC,74.9
9,CCOCCOC(=O)/C(C#N)=C(\NCc1cnc2ccccc2c1)C(C)C,18.2
10,CCOCCOC(=O)/C(C#N)=C(\NCc1ccc2ccccc2n1)SC,0

# System: Amaranthus retroflexus
# Assay: Herbicidal activity against Amaranthus retroflexus assessed as inhibition of herb growth at 1.5 kg/ha during preemergence treatment protocol
# Assay type: functional
# Conditions: pre-emergence, read-out: GI
row,Compound,inhibition of growth at 1500 g/ha [%]
1,CCOCCOC(=O)/C(C#N)=C(\NCc1ccc2ncccc2c1)SC,0
2,CCOCCOC(=O)/C(C#N)=C(\NCc1coc(-c2cccc(Cl)c2)n1)C(C)C,0
3,CCOCCOC(=O)/C(C#N)=C(\NCc1nc(-c2ccc(C(F)(F)F)cc2)no1)C(C)C,50.3
4,CCOCCOC(=O)/C(C#N)=C(\NCc1nc(-c2ccc(F)cc2)no1)C(C)C,0
5,CCOCCOC(=O)/C(C#N)=C(\NCc1ncc(C)o1)SC,43.9
6,CCOCCOC(=O)/C(C#N)=C(/CC)NCc1nc(-c2ccc(F)cc2)no1,0
7,CCOCCOC(=O)/C(C#N)=C(\NCc1ccc2ncccc2c1)C(C)C,0
8,CCOCCOC(=O)/C(C#N)=C(\NCc1cnc2ccccc2c1)SC,35.5
9,CCOCCOC(=O)/C(C#N)=C(\NCc1cnc2ccccc2c1)C(C)C,41.9
10,CCOCCOC(=O)/C(C#N)=C(\NCc1ccc2ccccc2n1)SC,0

# System: Digitaria sanguinalis
# Assay: Herbicidal activity against hairy Digitaria sanguinalis (hairy crabgrass) assessed as inhibition of herb growth at 1.5 kg/ha during postemergence treatment protocol
# Assay type: functional
# Conditions: post-emergence, read-out: GI
row,Compound,inhibition of growth at 1500 g/ha [%]
1,CCOCCOC(=O)/C(C#N)=C(\NCc1ccc2ncccc2c1)SC,66.2
2,CCOCCOC(=O)/C(C#N)=C(\NCc1coc(-c2cccc(Cl)c2)n1)C(C)C,0
3,CCOCCOC(=O)/C(C#N)=C(\NCc1nc(-c2ccc(C(F)(F)F)cc2)no1)C(C)C,57.5
4,CCOCCOC(=O)/C(C#N)=C(\NCc1nc(-c2ccc(F)cc2)no1)C(C)C,82.5
5,CCOCCOC(=O)/C(C#N)=C(\NCc1ncc(C)o1)SC,10
6,CCOCCOC(=O)/C(C#N)=C(/CC)NCc1nc(-c2ccc(F)cc2)no1,0
7,CCOCCOC(=O)/C(C#N)=C(\NCc1ccc2ncccc2c1)C(C)C,0
8,CCOCCOC(=O)/C(C#N)=C(\NCc1cnc2ccccc2c1)SC,48.1
9,CCOCCOC(=O)/C(C#N)=C(\NCc1cnc2ccccc2c1)C(C)C,45.5
10,CCOCCOC(=O)/C(C#N)=C(\NCc1ccc2ccccc2n1)SC,0

# System: Medicago sativa
# Assay: Herbicidal activity against Medicago sativa (alfalfa) assessed as inhibition of herb growth at 1.5 kg/ha during postemergence treatment protocol
# Assay type: functional
# Conditions: post-emergence, read-out: GI
row,Compound,inhibition of growth at 1500 g/ha [%]
1,CCOCCOC(=O)/C(C#N)=C(\NCc1ccc2ncccc2c1)SC,0
2,CCOCCOC(=O)/C(C#N)=C(\NCc1coc(-c2cccc(Cl)c2)n1)C(C)C,0
3,CCOCCOC(=O)/C(C#N)=C(\NCc1nc(-c2ccc(C(F)(F)F)cc2)no1)C(C)C,43.2
4,CCOCCOC(=O)/C(C#N)=C(\NCc1nc(-c2ccc(F)cc2)no1)C(C)C,10
5,CCOCCOC(=O)/C(C#N)=C(\NCc1ncc(C)o1)SC,0
6,CCOCCOC(=O)/C(C#N)=C(/CC)NCc1nc(-c2ccc(F)cc2)no1,0
7,CCOCCOC(=O)/C(C#N)=C(\NCc1ccc2ncccc2c1)C(C)C,10
8,CCOCCOC(=O)/C(C#N)=C(\NCc1cnc2ccccc2c1)SC,67.8
9,CCOCCOC(=O)/C(C#N)=C(\NCc1cnc2ccccc2c1)C(C)C,0
10,CCOCCOC(=O)/C(C#N)=C(\NCc1ccc2ccccc2n1)SC,15

# System: Brassica napus
# Assay: Herbicidal activity against Brassica napus (oilseed rape) assessed as inhibition of herb growth at 1.5 kg/ha during postemergence treatment protocol
# Assay type: functional
# Conditions: post-emergence, read-out: GI
row,Compound,inhibition of growth at 1500 g/ha [%]
1,CCOCCOC(=O)/C(C#N)=C(\NCc1ccc2ncccc2c1)SC,100
2,CCOCCOC(=O)/C(C#N)=C(\NCc1coc(-c2cccc(Cl)c2)n1)C(C)C,80.5
3,CCOCCOC(=O)/C(C#N)=C(\NCc1nc(-c2ccc(C(F)(F)F)cc2)no1)C(C)C,100
4,CCOCCOC(=O)/C(C#N)=C(\NCc1nc(-c2ccc(F)cc2)no1)C(C)C,100
5,CCOCCOC(=O)/C(C#N)=C(\NCc1ncc(C)o1)SC,10
6,CCOCCOC(=O)/C(C#N)=C(/CC)NCc1nc(-c2ccc(F)cc2)no1,0
7,CCOCCOC(=O)/C(C#N)=C(\NCc1ccc2ncccc2c1)C(C)C,73.7
8,CCOCCOC(=O)/C(C#N)=C(\NCc1cnc2ccccc2c1)SC,100
9,CCOCCOC(=O)/C(C#N)=C(\NCc1cnc2ccccc2c1)C(C)C,100
10,CCOCCOC(=O)/C(C#N)=C(\NCc1ccc2ccccc2n1)SC,35.6

# System: Amaranthus retroflexus
# Assay: Herbicidal activity against Amaranthus retroflexus assessed as inhibition of herb growth at 1.5 kg/ha during postemergence treatment protocol
# Assay type: functional
# Conditions: post-emergence, read-out: GI
row,Compound,inhibition of growth at 1500 g/ha [%]
1,CCOCCOC(=O)/C(C#N)=C(\NCc1ccc2ncccc2c1)SC,100
2,CCOCCOC(=O)/C(C#N)=C(\NCc1coc(-c2cccc(Cl)c2)n1)C(C)C,84.1
3,CCOCCOC(=O)/C(C#N)=C(\NCc1nc(-c2ccc(C(F)(F)F)cc2)no1)C(C)C,100
4,CCOCCOC(=O)/C(C#N)=C(\NCc1nc(-c2ccc(F)cc2)no1)C(C)C,100
5,CCOCCOC(=O)/C(C#N)=C(\NCc1ncc(C)o1)SC,100
6,CCOCCOC(=O)/C(C#N)=C(/CC)NCc1nc(-c2ccc(F)cc2)no1,0
7,CCOCCOC(=O)/C(C#N)=C(\NCc1ccc2ncccc2c1)C(C)C,0
8,CCOCCOC(=O)/C(C#N)=C(\NCc1cnc2ccccc2c1)SC,100
9,CCOCCOC(=O)/C(C#N)=C(\NCc1cnc2ccccc2c1)C(C)C,100
10,CCOCCOC(=O)/C(C#N)=C(\NCc1ccc2ccccc2n1)SC,0

# System: Cucumis sativus
# Assay: Plant growth regulatory activity in Cucumis sativus (cucumber) seeds assessed as stimulation of radicle growth level at 10 mg/mL
# Assay type: functional
# Conditions: not given
row,Compound,Activity [%]
1,CCOCCOC(=O)/C(C#N)=C(\NCc1ccc2ncccc2c1)SC,145
2,CCOCCOC(=O)/C(C#N)=C(\NCc1ccc2ncccc2c1)C(C)C,85
3,CCOCCOC(=O)/C(C#N)=C(\NCc1cnc2ccccc2c1)SC,110
4,CCOCCOC(=O)/C(C#N)=C(\NCc1cnc2ccccc2c1)C(C)C,85
5,CCOCCOC(=O)/C(C#N)=C(\NCc1ccc2ccccc2n1)SC,60

# System: Digitaria sanguinalis
# Assay: Herbicidal activity against hairy Digitaria sanguinalis (hairy crabgrass) assessed as inhibition of herb growth at 1.5 kg/ha during preemergence treatment protocol
# Assay type: functional
# Conditions: pre-emergence, read-out: GI
row,Compound,inhibition of growth at 1500 g/ha [%]
1,CCOCCOC(=O)/C(C#N)=C(\NCc1ccc2ncccc2c1)SC,10
2,CCOCCOC(=O)/C(C#N)=C(\NCc1coc(-c2cccc(Cl)c2)n1)C(C)C,0
3,CCOCCOC(=O)/C(C#N)=C(\NCc1nc(-c2ccc(C(F)(F)F)cc2)no1)C(C)C,10
4,CCOCCOC(=O)/C(C#N)=C(\NCc1nc(-c2ccc(F)cc2)no1)C(C)C,0
5,CCOCCOC(=O)/C(C#N)=C(\NCc1ncc(C)o1)SC,0
6,CCOCCOC(=O)/C(C#N)=C(/CC)NCc1nc(-c2ccc(F)cc2)no1,0
7,CCOCCOC(=O)/C(C#N)=C(\NCc1ccc2ncccc2c1)C(C)C,0
8,CCOCCOC(=O)/C(C#N)=C(\NCc1cnc2ccccc2c1)SC,0
9,CCOCCOC(=O)/C(C#N)=C(\NCc1cnc2ccccc2c1)C(C)C,0
10,CCOCCOC(=O)/C(C#N)=C(\NCc1ccc2ccccc2n1)SC,0

# System: Medicago sativa
# Assay: Herbicidal activity against Medicago sativa (alfalfa) assessed as inhibition of herb growth at 1.5 kg/ha during preemergence treatment protocol
# Assay type: functional
# Conditions: pre-emergence, read-out: GI
row,Compound,inhibition of growth at 1500 g/ha [%]
1,CCOCCOC(=O)/C(C#N)=C(\NCc1ccc2ncccc2c1)SC,0
2,CCOCCOC(=O)/C(C#N)=C(\NCc1coc(-c2cccc(Cl)c2)n1)C(C)C,5
3,CCOCCOC(=O)/C(C#N)=C(\NCc1nc(-c2ccc(C(F)(F)F)cc2)no1)C(C)C,0
4,CCOCCOC(=O)/C(C#N)=C(\NCc1nc(-c2ccc(F)cc2)no1)C(C)C,0
5,CCOCCOC(=O)/C(C#N)=C(\NCc1ncc(C)o1)SC,0
6,CCOCCOC(=O)/C(C#N)=C(/CC)NCc1nc(-c2ccc(F)cc2)no1,0
7,CCOCCOC(=O)/C(C#N)=C(\NCc1ccc2ncccc2c1)C(C)C,0
8,CCOCCOC(=O)/C(C#N)=C(\NCc1cnc2ccccc2c1)SC,10
9,CCOCCOC(=O)/C(C#N)=C(\NCc1cnc2ccccc2c1)C(C)C,0
10,CCOCCOC(=O)/C(C#N)=C(\NCc1ccc2ccccc2n1)SC,0
